Here are results for one compound from US12456194B2, “Methods for identifying and using cell behavior in drug screening and diagnosis” (Indiana University Research and Technology Corporation, priority 2020, dated 2025).

Test [1] deals with B16F10 melanoma cell line. The experiment in a line: 3D tumor culture T cell infiltration drug screen scored by neural network, B16F10. Particulars: B16F10 melanoma cell line-based screen; library of 141 small molecule epigenetic modulators; averaging the scores of a total of 10 images; FIG. 6. How it is done: (§1) Once the predicted Rd is determined, the predicted Rd for each patient can be classified as depicted in Step 215 of FIG. 2. For example, Rd can be defined as high, medium, and low-survival groups by binning the Rd's by or into risk classifications or categories, such as low survival, medium survival and high survival. Low survival may mean the Rd>75% of TCGA SKCM patient dataset; medium survival may mean Rd=25%-75% of TCGA SKCM patient dataset; and high survival may mean Rd<25% of TCGA SKCM patient dataset. Each risk classification or category may be associated with a predetermined values, such as 0 for low survival (high risk), 1 for medium survival (medium risk), and 2 for high survival (low risk).
(§2) The trained neural network as described in FIG. 1 and FIG. 4 is transferred to 3D tumor culture dataset 305, a drug screening method and/or a companion diagnostic method 300 may be performing using the algorithms discussed above with respect to FIGS. 1, 2 and 4 to objectively quantify and predict/score the effectiveness of a drug or a treatment based on a particular type of TIL behavior within 3D tumor cultures or patent tumor tissue samples. For example, a library of 141 small molecule epigenetic modulators in 2 cancer cell lines (e.g., B16F10 melanoma and UN-KC6141 pancreatic cancer) were screened. […]

Test [2] has as its system UN-KC6141 pancreatic cancer cell line. Kind of test: 3D tumor culture T cell infiltration drug screen scored by neural network, UN-KC6141. Particulars: UN-KC6141 pancreatic cancer cell line-based screen; library of 141 small molecule epigenetic modulators; averaging the scores of a total of 10 images; FIG. 6. How it is done: as §1, §2

Take `c1ccc([C@@H]2C[C@H]2NC2CCNCC2)cc1` [GSK-LSD1]: the “final score (T cell infiltration enhancement activity)” value in test [1] and in test [2] was “highest score” throughout.
